Measured values published in US3998874A, “Phenylene di-ethers” (Gist-Brocades N.V., priority 1974, dated 1976).
Counter-ions that a name gives are not always drawn.

Key:
[1] = biological target: T1, β-adrenergic (guinea pig tracheal chain) (Cavia porcellus, UniProt Q8K4Z4); assay: β-adrenergic blocking activity on guinea pig tracheal chain (antagonism of isoprenaline relaxation, pA2); conditions: vs isoprenaline, R = isopropyl for A-E
T1 construct: determined on the guinea pig tracheal chain; from tissue; host or cells: guinea pig tracheal chain (isolated)
T1 sequence (Q8K4Z4 whole entry): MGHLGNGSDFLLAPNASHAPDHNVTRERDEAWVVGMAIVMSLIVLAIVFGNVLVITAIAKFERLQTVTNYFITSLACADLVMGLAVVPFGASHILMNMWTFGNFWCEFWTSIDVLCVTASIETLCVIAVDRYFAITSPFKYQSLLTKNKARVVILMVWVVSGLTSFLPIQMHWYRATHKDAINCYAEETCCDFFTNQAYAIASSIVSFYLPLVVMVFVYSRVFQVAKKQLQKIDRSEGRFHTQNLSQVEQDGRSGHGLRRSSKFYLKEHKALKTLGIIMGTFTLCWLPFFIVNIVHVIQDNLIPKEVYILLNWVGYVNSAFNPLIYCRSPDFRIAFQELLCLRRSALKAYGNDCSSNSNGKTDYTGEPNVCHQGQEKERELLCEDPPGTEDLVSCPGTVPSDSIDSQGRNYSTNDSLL
Experimental: The β-adrenergic blocking activity was determined on the guinea pig tracheal chain prepared as described by H. Timmerman and N. G. Scheffer, J. Pharm. […] Int. Pharmacodyn. […] The pA2-values were calculated according to Van Rossum from the parallel shift to the right of the log dose - response curves.

cardiac β-receptors = biological target: T2, cardiac β-receptors (Cavia porcellus, UniProt H0W3H1); assay: antagonism to cardiac β-receptors on isolated, spontaneously beating right atrium (isoprenaline chronotropism, pA2); conditions: isolated right atrium guinea pig, vs isoprenaline; R = isopropyl for A-E
T2 construct: on the isolated, spontaneously beating, right atrium of the guinea pig; from tissue; host or cells: guinea pig right atrium (isolated, spontaneously beating)
T2 sequence (H0W3H1 1-470): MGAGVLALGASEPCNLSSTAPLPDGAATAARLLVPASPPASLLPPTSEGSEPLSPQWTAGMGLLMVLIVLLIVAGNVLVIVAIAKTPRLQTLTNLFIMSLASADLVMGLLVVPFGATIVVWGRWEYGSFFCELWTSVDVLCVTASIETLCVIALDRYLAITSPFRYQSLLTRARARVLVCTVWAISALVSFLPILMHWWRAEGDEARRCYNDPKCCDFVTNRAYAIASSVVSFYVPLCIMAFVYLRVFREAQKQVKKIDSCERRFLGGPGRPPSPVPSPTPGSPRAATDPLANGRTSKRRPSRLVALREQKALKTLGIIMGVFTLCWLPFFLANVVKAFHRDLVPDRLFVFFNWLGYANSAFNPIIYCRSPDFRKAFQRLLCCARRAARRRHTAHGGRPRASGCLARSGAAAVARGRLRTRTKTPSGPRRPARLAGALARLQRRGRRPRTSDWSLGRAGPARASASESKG

[2] = tested on: right atrial muscles from guinea pigs; assay: anti-arrhythmic activity in vitro, ouabain-induced arrhythmia in right atrial muscles; set-up: species or system guinea pig; conditions: Cavia porcellus; minimal drug concentration (M) preventing any arrhythmia, ouabain 0.5 μg/ml, 37° C, pH 7.4; read-out: Antiarrh. act. -log min. dose (converted)
Experimental: The anti-arrhythmic activity in vitro was determined as follows. Right atrial muscles from guinea pigs were dissected and freed from the appendage. They were suspended in 100 ml of a modified Ringer-Locke solution (g/l: […] Spontaneous contractions were recorded on a Schwarzer ECG (Cardioscript III) using an […] Transducer (8101) in a Wheatstone bridge circuit. Tension was so adjusted that contractions reached maximal amplitude while keeping distortion of the baseline minimal. After a 40-min equilibrium period the test compound was added and for 30 minutes contractile force and rate were recorded at 1-min intervals for 10 seconds. Next, ouabain was added in a concentration of 0.5 μg/ml and force and rate were measured at 1-min intervals over a 60-min period. […] This was confirmed at least once. Control experiments without test compounds were carried out daily.

[3] = hygroscopicity (observation in the synthesis example); type: physicochemical; conditions: dihydrochloride
[4] = tested on: aconitine-induced arrhythmias; assay: in vivo antagonism of aconitine-induced arrhythmias; set-up: species or system male rats; conditions: for % protection: vs control; for Dose of aconitine inducing arrhythmias: aconitine infusion 5 μg/kg/min
Experimental: This test was carried out in male rats under urethane anaesthesia as described by B. Vargaftig and J. L. Coignet, Eur. J. Pharmacol., 6, 49 (1969). It was estimated what dose of aconitine in an i.v. infusion (5 μ g/kg/min, rate 0.2 ml/min) would induce arrhythmias. Three minutes before the infusion physiological saline with or without test compound was injected i.v.

Cc1cccc(OCC(O)CNC(C)C)c1OCC(O)CNC(C)C.Cl.Cl (stereo not shown) [B, 1,1'-[(3-methyl-o-phenylene)dioxy]-bis-[3-(isopropylamino)propan-2-ol] dihydrochloride]
pA2 trachea [1]: 5.80 (±0.08) | Kb (cardiac β-receptors): 3310 nM | minimal effective concentration [2]: 2e-05 M

Cc1ccc(OCC(O)CNC(C)C)c(OCC(O)CNC(C)C)c1.Cl.Cl (stereo not shown) [D, 1,1'-[(4-methyl-o-phenylene)dioxy]-bis-[3-(isopropylamino)-propan-2-ol] dihydrochloride]
pA2 trachea [1]: 6.66 (±0.09) | Kb (cardiac β-receptors): 603 nM | minimal effective concentration [2]: 5.01e-05 M

CC(C)NCC(O)COc1ccc(C(C)C)cc1OCC(O)CNC(C)C.Cl.Cl (stereo not shown) [E, 1,1'-[(4-isopropyl-o-phenylene)dioxy]-bis-[3-(isopropylamino)-propan-2-ol] dihydrochloride]
pA2 trachea [1]: 6.48 (±0.09) | Kb (cardiac β-receptors): 2290 nM | minimal effective concentration [2]: 2e-05 M | hygroscopicity [3]: very hydroscopic

CC(C)NCC(O)COc1ccccc1OCC(O)CNC(C)C (stereo not shown) [A, 1,1'-(o-phenylenedioxy)-bis-[3-(isoproyl-amino)propan-2-ol] dihydrochloride]
pA2 trachea [1]: 6.73 (±0.05) | Kb (cardiac β-receptors): 324 nM | minimal effective concentration [2]: 0.0002 M | % protection ([4]; 4 mg/kg i.v.): 12.9% | % protection ([4]; 8 mg/kg i.v.): 35.5% | % protection ([4]; 16 mg/kg i.v.): 110.8% | Dose of aconitine inducing arrhythmias ([4]; test compound 4 mg/kg i.v.): 0.0315 mg/kg | Dose of aconitine inducing arrhythmias ([4]; test compound 8 mg/kg i.v.): 0.0378 mg/kg | Dose of aconitine inducing arrhythmias ([4]; test compound 16 mg/kg i.v.): 0.0588 mg/kg

CC(C)(C)NCC(O)COc1ccccc1OCC(O)CNC(C)(C)C (stereo not shown) [F, 1,1'-(o-phenylenedioxy)-bis-[3-(tert.-butylamino)-propan-2-ol]dihydrochloride]
% protection ([4]; 4 mg/kg i.v.): 41.7% | % protection ([4]; 8 mg/kg i.v.): 104.2% | % protection ([4]; 16 mg/kg i.v.): 158.6% | Dose of aconitine inducing arrhythmias ([4]; test compound 4 mg/kg i.v.): 0.034 mg/kg | Dose of aconitine inducing arrhythmias ([4]; test compound 8 mg/kg i.v.): 0.049 mg/kg | Dose of aconitine inducing arrhythmias ([4]; test compound 16 mg/kg i.v.): 0.062 mg/kg

CC(C)NCC(O)COc1ccccc1 (stereo not shown) [G, 1-(isopropylamino)-3-phenoxy-2-propanol, reference compound]
Kb ([1]; read-out: pA2 trachea (converted)): 24.5 nM | Kb (cardiac β-receptors): 0.977 nM | minimal effective concentration [2]: 0.000302 M

CC(C)NCC(O)COc1cccc(C(C)C)c1OCC(O)CNC(C)C (stereo not shown) [C, 1,1'-[(3-isopropyl-o-phenylene)dioxy]-bis-[3-(isopropylamino)-propan-2-ol]dihydrochloride]
pA2 trachea [1]: 5.35 (±0.11) | Kb (cardiac β-receptors): 25700 nM | minimal effective concentration [2]: 1e-05 M | % protection ([4]; 0.5 mg/kg i.v.): 44.0% | % protection ([4]; 1.0 mg/kg i.v.): 79.6% | % protection ([4]; 2.0 mg/kg i.v.): 135.5% | Dose of aconitine inducing arrhythmias ([4]; test compound 0.5 mg/kg i.v.): 0.0458 mg/kg | Dose of aconitine inducing arrhythmias ([4]; test compound 1.0 mg/kg i.v.): 0.0571 mg/kg | Dose of aconitine inducing arrhythmias ([4]; test compound 2.0 mg/kg i.v.): 0.0749 mg/kg
